# Patent US7943340B2, “Fungal dipeptidyl peptidase IV (DPPIV) enzyme for reagent use” (priority 2003, dated 2011)
# B1: AMPP: T. rubrum aminopeptidase P (SEQ ID NO: 24) (protein, listed as Trichophyton rubrum)
# chain: MPPPPVDTTQRLAKLRELMAQNKVDVYIVPSEDSHQSEYIAPCDGRRAFISSFTGSAGCAIVSMSKAALSTDGRYFSQAAKQLDANWILLKRGVEGVPTWEEWTAEQAETRQGCGSDARKLSQTLKTTGGSLVGIDQNLIDAVWGDERPARPANQITVQPVERAGKSFEEKVEDLRKELTAKKRSAMVISSKFLYKWYLSLYTKSHADWCSIPYNPVFFSYAIVTPSVAELYVDESKLSPEARKHLEGKVVLKPYESIFQASKVLAESKASASSGSSGKFLLSNKASWSLSLALGGEQNVVEVRSPITDAKAIKNEVELEGFRKCHIRDGAALIEYFAWLENALIKEGAKLDEVDGADKLFEIRKKYDLFVGNSFDTISSTGANGATIHYKPEKSTCAIIDPKAMYLCDSGGQYLDGTTDTTRTLHFGEPTEFQKKAYALVLKGHISIDNAIFPKGTTGYAIDSFARQHLWKEGLDYLHGTGHGVGSFLNVHEGPMGIGSRAQYAEVPLSASNSLDIMKTATSAFVSRVSSMTAYSSFFILTASLDLVICKEVQTAHKFGDKPFLGFESITLVPFCQKLLDASLLTEAERKWVNDYHAKVWEKTSPFFEKDELTTAWLKRETQPI
# Experiments:
# [1] = system: all the LAPs tested (ruLAP1, ruLAP2, fuLAP1, fuLAP2, pkLAP); type: biochemical; settings: Leu-AMC 5 mM; amastatin 500 μM; ortho-phenantroline 1 and 5 mM; others as
# Procedure: (§1) Inhibitors and metallic cations were pre-incubated with the enzymes for 15 min at 37° C. Then, Leu-AMC at a 5 mM final concentration was added. After further incubation for 60 min, enzyme activity was measured as described above. The inhibitors and their concentrations tested purified LAPs were: 500 μM amastatin (Bachem), 40 μM benzamidine (Sigma), 500 μM bestatin (Bachem), 5 mM/l mM EDTA (Sigma). 100 μM E-64 (L-trans-epoxysuccinyl-leu-4-guanidinobutylamide) (Bachem), 100 μM leupeptin (Sigma), 5 mM/1 mM ortho-phenanthroline (Sigma), 500 μM p-chloromercuribenzoic acid (Sigma), 100 μM pepstatin A (Sigma), 40 μM PMSF (Sigma), 20 μM TLCK (Roche Diagnostics), and 20 μM TPCK (Roche Diagnostics).
# [2] = system: T. rubrum secreted proteolytic activity; experiment: Inhibition of T. rubrum secreted proteolytic activity (resorufin-labeled casein); type: biochemical, Trichophyton rubrum; settings: resorufin-labeled casein as substrate
# Procedure: The proteolytic activity was measured using resorufin-labeled casein in phosphate buffer (20 mM; pH 7.4). The reaction mixture contained 0.02% substrate in a total volume of 0.5 ml. After incubation at 37° C., the undigested substrate was precipitated by trichloroacetic add (4% final concentration) and separated from the supernatant by centrifugation. The absorbance at 574 nm of the supernatant was measured after alkalinization by adding 500 μl Tris buffer (500 mM; pH 9.4). For practical purposes, one unit (U) of proteolytic activity was defined as that producing an absorbance of 0.001 per min.
# T. rubrum was grown at 30° C. in a medium containing 0.2% soy protein as a sole carbon and nitrogen source. After 14 days of growth, a concomitant clarification of the culture medium was noted and a substantial proteolytic activity (400 U ml^−1) detected using resorufin-labeled casein as substrate. This proteolytic activity was 15% and 85% inhibited by PMSF and ortho-phenanthroline. respectively, attesting that serine and metalloproteases were secreted by T. rubrum. […] In addition, a high activity on substrates such as Leu-AMC and Leu-pNA was detected in the T. rubrum culture supernatant.
# [3] = system: gliadin 14 mer PQPQLPYPQPQLPY; type: biochemical, wheat; settings: 4 h, 37° C., 1 mM CoCl2, pH7.2
# gliadin 33 mer = experiment: Digestion of gliadin 33 mer (RP-HPLC, ESI-MS); type: biochemical, wheat; settings: 37° C., 1 mM CoCl2, pH7.2
# desMet-G-CSF = experiment: Digestion of desMet-G-CSF with DPPIV; settings: overnight 37° C., E/S 1/20 (w:w)
# fuLAP2 = type: biochemical, Aspergillus fumigatus; settings: inhibitor 40 μM; Leu-MCA substrate
# Procedure: as §1
# [4] = biological target: T1, pkLAP (microsomal LAP from porcine kidney) (Sus scrofa, UniProt P15145); experiment: Effect of chemical reagents (inhibitors, metallic cations) on LAP activity with Leu-AMC; type: biochemical; settings: inhibitor 40 μM; Leu-MCA substrate
# T1 construct: purchased Sigma; host or cells: porcine kidney
# T1 sequence (P15145 1-963): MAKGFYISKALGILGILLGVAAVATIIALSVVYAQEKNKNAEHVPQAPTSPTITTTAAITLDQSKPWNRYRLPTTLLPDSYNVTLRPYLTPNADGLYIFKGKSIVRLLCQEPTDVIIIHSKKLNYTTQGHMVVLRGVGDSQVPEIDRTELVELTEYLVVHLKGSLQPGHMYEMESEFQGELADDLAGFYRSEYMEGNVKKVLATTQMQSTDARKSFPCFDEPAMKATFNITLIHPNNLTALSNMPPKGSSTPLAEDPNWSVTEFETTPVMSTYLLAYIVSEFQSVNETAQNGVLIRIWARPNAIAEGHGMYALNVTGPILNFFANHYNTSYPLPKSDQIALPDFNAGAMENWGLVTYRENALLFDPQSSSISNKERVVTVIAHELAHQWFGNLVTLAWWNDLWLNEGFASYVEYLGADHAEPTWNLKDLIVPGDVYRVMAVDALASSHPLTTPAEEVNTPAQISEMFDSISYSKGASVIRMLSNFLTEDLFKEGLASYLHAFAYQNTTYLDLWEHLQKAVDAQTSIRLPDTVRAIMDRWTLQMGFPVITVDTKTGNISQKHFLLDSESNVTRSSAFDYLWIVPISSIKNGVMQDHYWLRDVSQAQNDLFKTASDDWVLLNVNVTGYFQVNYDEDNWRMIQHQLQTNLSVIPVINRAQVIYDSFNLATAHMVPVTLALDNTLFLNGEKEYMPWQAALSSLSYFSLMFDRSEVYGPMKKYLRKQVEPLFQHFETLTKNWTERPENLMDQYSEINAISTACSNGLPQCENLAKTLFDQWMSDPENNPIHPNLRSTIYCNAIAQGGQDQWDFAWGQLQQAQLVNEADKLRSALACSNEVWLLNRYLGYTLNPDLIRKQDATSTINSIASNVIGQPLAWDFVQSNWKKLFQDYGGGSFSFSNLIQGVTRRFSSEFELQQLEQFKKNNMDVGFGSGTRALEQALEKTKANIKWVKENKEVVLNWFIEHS
# Procedure: as §1
# fuLAP1 = fuLAP1 (Aspergillus fumigatus, UniProt Q5VJG6); type: biochemical; settings: inhibitor 40 μM; Leu-MCA substrate
# fuLAP1, sequence (Q5VJG6 15-388, looked up, natural form): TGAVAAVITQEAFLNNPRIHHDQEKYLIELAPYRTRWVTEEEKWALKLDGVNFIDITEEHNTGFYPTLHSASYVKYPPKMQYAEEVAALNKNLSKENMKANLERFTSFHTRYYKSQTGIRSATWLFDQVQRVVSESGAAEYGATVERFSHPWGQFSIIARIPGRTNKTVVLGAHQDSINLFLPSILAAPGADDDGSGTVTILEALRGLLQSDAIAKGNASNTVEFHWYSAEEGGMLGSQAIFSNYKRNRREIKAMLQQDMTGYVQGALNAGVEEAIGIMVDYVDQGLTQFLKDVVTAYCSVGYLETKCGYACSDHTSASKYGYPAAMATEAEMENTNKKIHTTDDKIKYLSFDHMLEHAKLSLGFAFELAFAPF
# Procedure: as §1
# ruLAP1 = ruLAP1 (Trichophyton rubrum, UniProt Q5QHG5); type: biochemical; settings: inhibitor 40 μM; Leu-MCA substrate
# ruLAP1, sequence (Q5QHG5 19-373): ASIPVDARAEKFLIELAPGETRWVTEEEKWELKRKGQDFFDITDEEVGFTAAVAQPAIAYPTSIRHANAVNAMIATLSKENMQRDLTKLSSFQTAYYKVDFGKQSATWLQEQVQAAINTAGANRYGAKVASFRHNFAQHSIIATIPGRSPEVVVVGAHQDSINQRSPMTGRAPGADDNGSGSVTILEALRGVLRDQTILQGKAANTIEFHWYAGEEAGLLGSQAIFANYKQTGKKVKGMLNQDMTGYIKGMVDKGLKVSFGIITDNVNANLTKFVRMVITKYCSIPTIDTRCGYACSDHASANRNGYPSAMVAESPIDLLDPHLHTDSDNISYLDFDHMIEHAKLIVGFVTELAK
# Procedure: as §1
# ruLAP2 = ruLAP2 (Trichophyton rubrum, UniProt Q5QHG6); type: biochemical; settings: inhibitor 40 μM; Leu-MCA substrate
# ruLAP2, sequence (Q5QHG6 22-495): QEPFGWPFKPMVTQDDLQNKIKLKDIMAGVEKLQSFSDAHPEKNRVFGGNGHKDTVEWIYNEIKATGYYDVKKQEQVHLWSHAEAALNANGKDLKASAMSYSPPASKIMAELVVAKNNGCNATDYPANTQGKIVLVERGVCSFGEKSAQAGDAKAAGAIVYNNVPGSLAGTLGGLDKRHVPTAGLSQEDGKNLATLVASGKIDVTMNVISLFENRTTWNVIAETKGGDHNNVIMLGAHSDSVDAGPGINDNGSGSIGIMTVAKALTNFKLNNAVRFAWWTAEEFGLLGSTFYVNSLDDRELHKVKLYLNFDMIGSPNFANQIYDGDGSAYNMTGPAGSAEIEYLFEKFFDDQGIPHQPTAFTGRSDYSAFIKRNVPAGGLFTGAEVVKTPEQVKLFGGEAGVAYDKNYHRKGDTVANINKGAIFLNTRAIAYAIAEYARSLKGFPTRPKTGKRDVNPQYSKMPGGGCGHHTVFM
# Procedure: as §1
# [5] = Enzymatic activity of T. rubrum AMPP at various pH values (FIG. 4); type: biochemical
# Excerpt: FIG. 4 is a graph of the enzymatic activity of T. rubrum AMPP (aminopeptidase P) at various pH values. It appears that AMPP has activity over a broad range of pH values, from pH 6 to 11.
# [6] = Enzymatic activity of T. rubrum AMPP at various temperatures (FIG. 5); type: biochemical
# Excerpt: FIG. 5 is a graph of the enzymatic activity of T. rubrum AMPP at various temperatures.
molecule,measurement,setting,value
c1cnc2c(c1)ccc1cccnc12 [ortho-phenanthroline],effect of inhibitor on all the LAPs tested,[1],totally inhibited
same,inhibition of proteolytic activity,[2],85%
"ruDPPIV: T. rubrum dipeptidylpeptidase IV, 775 amino acid residues (SEQ ID NO: 35)",digestion of the 14 mer,[3],not able to hydrolyse the peptide
same,digestion of the 33 mer,gliadin 33 mer,not a substrate
same,cleavage of N-terminal dipeptide from desMet-G-CSF,desMet-G-CSF,Traces of undigested material are still present
O=S(=O)(F)Cc1ccccc1 [PMSF],"fuLAP2 hydrolytic activity, percentage of control without inhibitor",fuLAP2,84%
same,"pkLAP hydrolytic activity, percentage of control without inhibitor",[4],58%
same,effect of inhibitor on all the LAPs tested,[1],no clear inhibitory effects
same,"fuLAP1 hydrolytic activity, percentage of control without inhibitor",fuLAP1,156%
same,"ruLAP1 hydrolytic activity, percentage of control without inhibitor",ruLAP1,78%
same,"ruLAP2 hydrolytic activity, percentage of control without inhibitor",ruLAP2,79%
same,inhibition of proteolytic activity,[2],15%
B1,pH range of activity,[5],6 to 11 pH
same,optimal temperature,[6],50 C
same,temperature range of activity,[6],25 to 60 C
